Patent US9359358B2, “Cyclohexyl azetidine derivatives as JAK inhibitors” (Incyte Holdings Corporation, priority 2011, dated 2016)
Where a name gives a salt, the structure may show the parent alone.

Tests used:
human JAK2 = target: T1, human JAK2 (Homo sapiens, UniProt O60674); test: In Vitro JAK Kinase Assay (HTRF, phosphorylation of a biotinylated peptide), JAK2; type: biochemical; details: assay of Example A
T1 construct: JAK2 (a.a. 828-1132); His tag (N); made in house; host or cells: insect cells (baculovirus)
T1 sequence (O60674 828-1132): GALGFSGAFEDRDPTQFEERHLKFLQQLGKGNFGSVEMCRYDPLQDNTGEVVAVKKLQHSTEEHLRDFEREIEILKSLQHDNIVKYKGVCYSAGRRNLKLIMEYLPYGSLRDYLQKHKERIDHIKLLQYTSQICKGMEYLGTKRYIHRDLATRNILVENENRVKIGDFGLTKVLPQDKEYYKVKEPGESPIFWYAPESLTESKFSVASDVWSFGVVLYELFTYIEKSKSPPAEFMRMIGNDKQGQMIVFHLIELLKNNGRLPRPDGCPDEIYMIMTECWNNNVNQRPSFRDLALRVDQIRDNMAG
Outline: (§1)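 HTRF detection (SA-APC plus Eu-labeled anti-phosphotyrosine Py20, 40 min after EDTA stop) quantified biotinylated-peptide phosphorylation. Kinase reactions with human JAK1 or JAK2 catalytic domains lasted 1 h at room temperature.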

human JAK1 = target: T2, human JAK1 (Homo sapiens, UniProt P23458); test: In Vitro JAK Kinase Assay (HTRF, phosphorylation of a biotinylated peptide), JAK1; type: biochemical; details: catalytic domain a.a. 837-1142, assay of Example A
T2 construct: human JAK1 (a.a. 837-1142); His tag (N); made in house; host or cells: insect cells (baculovirus)
T2 sequence (P23458 849-1154): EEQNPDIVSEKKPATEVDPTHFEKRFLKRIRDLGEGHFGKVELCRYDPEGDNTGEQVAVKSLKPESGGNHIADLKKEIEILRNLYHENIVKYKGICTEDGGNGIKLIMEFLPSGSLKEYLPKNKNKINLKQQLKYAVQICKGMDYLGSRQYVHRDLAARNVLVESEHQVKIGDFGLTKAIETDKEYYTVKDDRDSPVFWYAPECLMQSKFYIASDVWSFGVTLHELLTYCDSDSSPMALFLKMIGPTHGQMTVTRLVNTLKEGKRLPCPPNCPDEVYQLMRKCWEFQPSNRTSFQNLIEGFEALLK
Outline: as §1

| Compound | JAK2/JAK1 IC50 ratio (human JAK2; Table 4) | IC50 (human JAK1; Table 4) [nM] | JAK2/JAK1 IC50 ratio (human JAK2; Table 5) | IC50 (human JAK1; Table 5) [nM] |
| --- | --- | --- | --- | --- |
| N#CCC1(n2cc(-c3ncnc4[nH]ccc34)cn2)CN([C@H]2CC[C@@H](Oc3cc(C(=O)N4CCCC4)nc(C(F)(F)F)n3)CC2)C1 [Example 51, {1-(cis-4-{[6-(pyrrolidin-1-ylcarbonyl)-2-(trifluoromethyl)pyrimidin-4-yl]oxy}cyclohexyl)-3-[4-(7H-pyrrolo[2,3-d]pyrimidin-4-yl)-1H-pyrazol-1-yl]azetidin-3-yl}acetonitrile bis(trifluoroacetate)] | ≧10 | < 10 |  |  |
| CC(C)(CO)NCc1cc(O[C@H]2CC[C@@H](N3CC(CC#N)(n4cc(-c5ncnc6[nH]ccc56)cn4)C3)CC2)nc(C(F)(F)F)n1.O=C(O)C(F)(F)F.O=C(O)C(F)(F)F.O=C(O)C(F)(F)F.O=C(O)C(F)(F)F [Example 52, {1-(cis-4-{[6-{[(2-hydroxy-1,1-dimethylethyl)amino]methyl}-2-(trifluoromethyl)pyrimidin-4-yl]oxy}cyclohexyl)-3-[4-(7H-pyrrolo[2,3-d]pyrimidin-4-yl)-1H-pyrazol-1-yl]azetidin-3-yl}acetonitrile tetrakis(trifluoroacetate) (salt)] | ≧10 | < 10 |  |  |
| CC1(NCc2cc(O[C@H]3CC[C@@H](N4CC(CC#N)(n5cc(-c6ncnc7[nH]ccc67)cn5)C4)CC3)nc(C(F)(F)F)n2)CC1.O=C(O)C(F)(F)F.O=C(O)C(F)(F)F.O=C(O)C(F)(F)F [Example 53, {1-(cis-4-{[6-{[(1-methylcyclopropyl)amino]methyl}-2-(trifluoromethyl)pyrimidin-4-yl]oxy}cyclohexyl)-3-[4-(7H-pyrrolo[2,3-d]pyrimidin-4-yl)-1H-pyrazol-1-yl]azetidin-3-yl}acetonitrile tris(trifluoroacetate)] | ≧10 | < 10 |  |  |
| N#CCC1(n2cc(-c3ncnc4[nH]ccc34)cn2)CN([C@H]2CC[C@@H](Oc3cc(C#N)nc(C(F)(F)F)n3)CC2)C1 [Example 54, 6-[(cis-4-{3-(cyanomethyl)-3-[4-(7H-pyrrolo[2,3-d]pyrimidin-4-yl)-1H-pyrazol-1-yl]azetidin-1-yl}cyclohexyl)oxy]-2-(trifluoromethyl)pyrimidine-4-carbonitrile bis(trifluoroacetate)] | ≧10 | < 10 |  |  |
| N#CCC1(n2cc(-c3ncnc4[nH]ccc34)cn2)CN([C@H]2CC[C@@H](Oc3cc(OCCO)nc(C(F)(F)F)n3)CC2)C1 [Example 56, {1-(cis-4-{[6-(2-hydroxyethoxy)-2-(trifluoromethyl)pyrimidin-4-yl]oxy}cyclohexyl)-3-[4-(7H-pyrrolo[2,3-d]pyrimidin-4-yl)-1H-pyrazol-1-yl]azetidin-3-yl}acetonitrile bis(trifluoroacetate) (salt)] | ≧10 | < 10 |  |  |
| N#CCC1(n2cc(-c3ncnc4[nH]ccc34)cn2)CN([C@H]2CC[C@@H](Oc3cc(CCF)nc(C(F)(F)F)n3)CC2)C1 [Example 60, {1-(cis-4-{[6-(2-fluoro ethyl)-2-(trifluoromethyl)pyrimidin-4-yl]oxy}cyclohexyl)-3-[4-(7H-pyrrolo[2,3-d]pyrimidin-4-yl)-1H-pyrazol-1-yl]azetidin-3-yl}acetonitrile tris(trifluoroacetate)] | ≧10 | < 10 |  |  |
| CC(C)(F)c1cc(O[C@H]2CC[C@@H](N3CC(CC#N)(n4cc(-c5ncnc6[nH]ccc56)cn4)C3)CC2)nc(C(F)(F)F)n1.O=C(O)C(F)(F)F.O=C(O)C(F)(F)F [Example 61, {1-(cis-4-{[6-(1-fluoro-1-methylethyl)-2-(trifluoromethyl)pyrimidin-4-yl]oxy}cyclohexyl)-3-[4-(7H-pyrrolo[2,3-d]pyrimidin-4-yl)-1H-pyrazol-1-yl]azetidin-3-yl}acetonitrile bis(trifluoroacetate)] | ≧10 | < 10 |  |  |
| CC(C)(CO)c1cc(O[C@H]2CC[C@@H](N3CC(CC#N)(n4cc(-c5ncnc6[nH]ccc56)cn4)C3)CC2)nc(C(F)(F)F)n1 [Example 62, {1-(cis-4-{[6-(2-hydroxy-1,1-dimethylethyl)-2-(trifluoromethyl)pyrimidin-4-yl]oxy}cyclohexyl)-3-[4-(7H-pyrrolo[2,3-d]pyrimidin-4-yl)-1H-pyrazol-1-yl]azetidin-3-yl}acetonitrile tris(trifluoroacetate) (salt)] | ≧10 | < 10 |  |  |
| N#CCC1(n2cc(-c3ncnc4[nH]ccc34)cn2)CN([C@H]2CC[C@@H](Oc3cc(C4(CO)CC4)nc(C(F)(F)F)n3)CC2)C1 [Example 63, {1-(cis-4-{[6-[1-(hydroxymethyl)cyclopropyl]-2-(trifluoromethyl)pyrimidin-4-yl]oxy}cyclohexyl)-3-[4-(7H-pyrrolo[2,3-d]pyrimidin-4-yl)-1H-pyrazol-1-yl]azetidin-3-yl}acetonitrile bis(trifluoroacetate) (salt)] | ≧10 | < 10 |  |  |
| N#CCC1(n2cc(-c3ncnc4[nH]ccc34)cn2)CN([C@H]2CC[C@@H](Oc3cc(CO)cc(C(F)(F)F)n3)CC2)C1 [Example 64, {1-(cis-4-{[4-(hydroxymethyl)-6-(trifluoromethyl)pyridin-2-yl]oxy}cyclohexyl)-3-[4-(7H-pyrrolo[2,3-d]pyrimidin-4-yl)-1H-pyrazol-1-yl]azetidin-3-yl}acetonitrile bis(trifluoroacetate)] |  |  | ≧10 | < 10 |

Other lines, results leading:

| JAK2/JAK1 IC50 ratio (human JAK2; Table 4) | IC50 (human JAK1; Table 4) [nM] | JAK2/JAK1 IC50 ratio (human JAK2; Table 5) | IC50 (human JAK1; Table 5) [nM] | Compound |
| --- | --- | --- | --- | --- |
|  |  | ≧10 | < 10 | CCNCc1cc(O[C@H]2CC[C@@H](N3CC(CC#N)(n4cc(-c5ncnc6[nH]ccc56)cn4)C3)CC2)nc(C(F)(F)F)c1 [Example 65, {1-(cis-4-{[4-[(ethylamino)methyl]-6-(trifluoromethyl)pyridin-2-yl]oxy}cyclohexyl)-3-[4-(7H-pyrrolo[2,3-d]pyrimidin-4-yl)-1H-pyrazol-1-yl]azetidin-3-yl}acetonitrile tris(trifluoroacetate)] |
|  |  | ≧10 | < 10 | N#CCC1(n2cc(-c3ncnc4[nH]ccc34)cn2)CN([C@H]2CC[C@@H](Oc3cc(CN)cc(C(F)(F)F)n3)CC2)C1 [Example 66, {1-(cis-4-{[4-(aminomethyl)-6-(trifluoromethyl)pyridin-2-yl]oxy}cyclohexyl)-3-[4-(7H-pyrrolo[2,3-d]pyrimidin-4-yl)-1H-pyrazol-1-yl]azetidin-3-yl}acetonitrile tris(trifluoroacetate)] |
|  |  | ≧10 | < 10 | CNCc1cc(O[C@H]2CC[C@@H](N3CC(CC#N)(n4cc(-c5ncnc6[nH]ccc56)cn4)C3)CC2)nc(C(F)(F)F)c1 [Example 67, {1-(cis-4-{[4-[(methylamino)methyl]-6-(trifluoromethyl)pyridin-2-yl]oxy}cyclohexyl)-3-[4-(7H-pyrrolo[2,3-d]pyrimidin-4-yl)-1H-pyrazol-1-yl]azetidin-3-yl}acetonitrile tris(trifluoroacetate)] |
|  |  | ≧10 | < 10 | CN(C)Cc1cc(O[C@H]2CC[C@@H](N3CC(CC#N)(n4cc(-c5ncnc6[nH]ccc56)cn4)C3)CC2)nc(C(F)(F)F)c1 [Example 68, {1-(cis-4-{[4-[(dimethylamino)methyl]-6-(trifluoromethyl)pyridin-2-yl]oxy}cyclohexyl)-3-[4-(7H-pyrrolo[2,3-d]pyrimidin-4-yl)-1H-pyrazol-1-yl]azetidin-3-yl}acetonitrile tris(trifluoroacetate)] |
|  |  | ≧10 | < 10 | CC(C)(O)c1cc(O[C@H]2CC[C@@H](N3CC(CC#N)(n4cc(-c5ncnc6[nH]ccc56)cn4)C3)CC2)nc(C(F)(F)F)c1 [Example 69, {1-(cis-4-{[4-(1-hydroxy-1-methylethyl)-6-(trifluoromethyl)pyridin-2-yl]oxy}cyclohexyl)-3-[4-(7H-pyrrolo[2,3-d]pyrimidin-4-yl)-1H-pyrazol-1-yl]azetidin-3-yl}acetonitrile bis(trifluoroacetate)] |
|  |  | ≧10 | < 10 | N#CCC1(n2cc(-c3ncnc4[nH]ccc34)cn2)CN([C@H]2CC[C@@H](Oc3cc(CNCCCO)cc(C(F)(F)F)n3)CC2)C1 [Example 70, {1-(cis-4-{[4-{[(3-hydroxypropyl)amino]methyl}-6-(trifluoromethyl)pyridin-2-yl]oxy}cyclohexyl)-3-[4-(7H-pyrrolo[2,3-d]pyrimidin-4-yl)-1H-pyrazol-1-yl]azetidin-3-yl}acetonitrile tris(trifluoroacetate)] |
|  |  | ≧10 | < 20 | N#CCC1(n2cc(-c3ncnc4[nH]ccc34)cn2)CN([C@H]2CC[C@@H](Oc3cc(CNC4CC4)cc(C(F)(F)F)n3)CC2)C1 [Example 72, {1-(cis-4-{[4-[(cyclopropylamino)methyl]-6-(trifluoromethyl)pyridin-2-yl]oxy}cyclohexyl)-3-[4-(7H-pyrrolo[2,3-d]pyrimidin-4-yl)-1H-pyrazol-1-yl]azetidin-3-yl}acetonitrile tris(trifluoroacetate)] |
|  |  | ≧10 | < 10 | C[C@@H](CO)NCc1cc(O[C@H]2CC[C@@H](N3CC(CC#N)(n4cc(-c5ncnc6[nH]ccc56)cn4)C3)CC2)nc(C(F)(F)F)c1 [Example 73, {1-(cis-4-{[4-({[(1S)-2-hydroxy-1-methylethyl]amino}methyl)-6-(trifluoromethyl)pyridin-2-yl]oxy}cyclohexyl)-3-[4-(7H-pyrrolo[2,3-d]pyrimidin-4-yl)-1H-pyrazol-1-yl]azetidin-3-yl}acetonitrile tris(trifluoroacetate)] |
|  |  | ≧10 | < 10 | N#CCC1(n2cc(-c3ncnc4[nH]ccc34)cn2)CN([C@H]2CC[C@@H](Oc3cc(CNCCO)cc(C(F)(F)F)n3)CC2)C1 [Example 74, {1-(cis-4-{[4-{[(2-hydroxyethyl)amino]methyl}-6-(trifluoromethyl)pyridin-2-yl]oxy}cyclohexyl)-3-[4-(7H-pyrrolo[2,3-d]pyrimidin-4-yl)-1H-pyrazol-1-yl]azetidin-3-yl}acetonitrile tris(trifluoroacetate)] |
